Data on twelve compounds can be found in ChEMBL document CHEMBL1135852, “Inhibitors of NF-kappaB signaling: design and synthesis of a biotinylated isopanepoxydone affinity reagent” (2002).

For one assay, the system named is HeLa. The assay is described as follows: Compound was tested for NF-kB inhibitory activity in Hela M cells. The format is functional, Homo sapiens.
For a further assay, the system named is HEK293. The assay is described as follows: Compound was tested for NF-kB inhibitory activity in HEK 293 cells. The format is functional, Homo sapiens.

On to `CC(C)=C[C@@H](O)C1=C[C@@H](O)[C@@H]2O[C@@H]2C1=O`, for which the Inhibitory activity result with HeLa and in the assay with HEK293 was “<=0” in each case.

For `CC(=O)O[C@H]1C(/C=C/C(C)(O)CCCCCCCCN2C(=O)c3ccccc3C2=O)=CC(=O)[C@@H]2O[C@@H]21` (stereo partly drawn), the Inhibitory activity result in the assay on HeLa and with HEK293 was “<=0” each time.

In the case of `CC(C)=C[C@H](O)C1=C[C@@H](O)[C@@H]2O[C@@H]2C1=O` [PANEPOXYDONE], the Inhibitory activity entry in the assay on HeLa and in the assay on HEK293 was “<=0” each time.

On to `CC(C)(O)/C=C/C1=C[C@@H](O)[C@@H]2O[C@@H]2C1=O`, for which the Inhibitory activity result is listed as “>=100” with HeLa and 63 in the assay on HEK293.

For `CC(C)(O)/C=C/C1=CC(=O)[C@@H]2O[C@@H]2C1=O`, the Inhibitory activity entry in the assay with HeLa and with HEK293 was “<=0” each time.

As to `CC(=O)O[C@H]1C(/C=C/C(C)(C)O)=CC(=O)[C@@H]2O[C@@H]21`, the Inhibitory activity entry in the assay on HeLa and with HEK293 was “<=0” each time.

On to `CC(=O)O[C@@H]1C(/C=C/C(C)(C)O)=CC(=O)[C@@H]2O[C@H]12`, for which the Inhibitory activity entry in the assay with HeLa and in the assay on HEK293 was “<=0” throughout.

Consider `CC(C)(O)/C=C/C1=CC(=O)[C@@H]2O[C@@H]2[C@H]1O`, for which the Inhibitory activity result with HeLa is recorded as “<=0”; with HEK293, 4.

Consider `CC(C)(O)/C=C/C1=CC(=O)[C@@H]2O[C@@H]2[C@@H]1O`, for which, in the assay with HeLa, the Inhibitory activity result is recorded as “>=100”.

On to `CC(=O)O[C@@H]1C(/C=C/C(C)(C)O)=C[C@@H](O)[C@@H]2O[C@@H]21`, for which the Inhibitory activity result with HeLa was “>=100”; in the assay on HEK293 it was 58.

Regarding `CC(=O)O[C@H]1C(/C=C/C(C)(C)O)=C[C@@H](O)[C@@H]2O[C@@H]21`, the Inhibitory activity entry with HeLa was “>=100”; with HEK293, 49.

As to `CC(C)=CC(=O)C1=C[C@@H](O)[C@@H]2O[C@@H]2[C@@H]1O`, the Inhibitory activity with HeLa is reported as 85; in the assay on HEK293, 65.
